Reference: patent US20240381868A1, “AGED AQUEOUS ANTIMICROBIAL COMPOSITION” (EVONIK CORPORATION, priority 2021, published 2024)

Legend:
[1] = Formation and stability of other peracids at room temperature (titration); format: physicochemical
Description: (§1) The concentrations of formed peracids and hydrogen peroxide were monitored by titration on an auto-titrator and by using Chemetrics test kits K7913F and K-5543.
Various other peracids were also prepared using corresponding organic acid precursors and hydrogen peroxide as described in the Example 1. Only the acids with low or no odor were used in the experiment. The solutions were kept at room temperature and periodically tested for the concentration of the components using an auto-titrator and standard titration methods.

[2] = Formation and stability of peroxycitric acid solutions at room temperature (titration); format: physicochemical; conditions: H2SO4 catalyst
Description: as §1
Two solutions were prepared using solid citric acid (47.9 wt %), 70 wt % hydrogen peroxide (21.8 wt %) and the rest DI water. 0.6 wt % Dequest 2010 stabilizer was added to both solutions. To the first solution (PCA-1), 4.9 wt % concentrated sulfuric acid was added as a catalyst. To the second solution (PCA-2), 0.6 wt % of sulfuric acid was added. Both solutions were kept at room temperature and periodically tested for the concentration of the components using an auto-titrator and standard titration methods.

Question: Which “Peracid Concentration” value ([1]; 1 day) does the source give for `O=C(O)CCCC(=O)OO` [Peroxyglutaric, perglutaric acid] here?
Answer: 0.993 mol/kg

Question: And the “Peracid Concentration” value ([1]; 3 days)?
Answer: 1.189 mol/kg

Question: And the “Peracid Concentration” value ([1]; 7 days)?
Answer: 1.081 mol/kg

Question: And the “Peracid Concentration” value ([1]; 14 days)?
Answer: 0.986 mol/kg

Question: And the “Peracid Concentration” value ([1]; 22 days)?
Answer: 0.919 mol/kg

Question: Which results are given for `O=C(O)/C=C\C(=O)OO` [Peroxymaleic, Permaleic acid]?
Answer: max peracid concentration formed [1]: 5.1 wt %; time for which peracid was stable [1]: at least 78 days; Peracid Concentration ([1]; 1 day): 0.235 mol/kg; Peracid Concentration ([1]; 7 days): 0.386 mol/kg; Peracid Concentration ([1]; 14 days): 0.379 mol/kg; Peracid Concentration ([1]; 22 days): 0.348 mol/kg; Peracid Concentration ([1]; 78 days): 0.318 mol/kg

Question: For `O=C(O)CC(=O)OO` [Peroxymalonic, permalonic acid], which “Peracid Concentration” value ([1]; 3 days) is on record?
Answer: 0.442 mol/kg

Question: And the “Peracid Concentration” value ([1]; 7 days)?
Answer: 0.200 mol/kg

Question: And the “Peracid Concentration” value ([1]; 14 days)?
Answer: 0.083 mol/kg

Question: For `O=C(O)C(=O)OO` [Peroxyoxalic, peroxalic acid], which “concentration of peracid formed” value [1] is on record?
Answer: < 1.0 wt %

Question: What about the “Peracid Concentration” value ([1]; 3 days) of the same compound?
Answer: 0.047 mol/kg

Question: What about the “Peracid Concentration” value ([1]; 7 days) of the same compound?
Answer: 0.066 mol/kg

Question: And the “Peracid Concentration” value ([1]; 14 days)?
Answer: 0.057 mol/kg

Question: With Percitric acid [PCA] as the compound, how does the “time to reach maximum concentration of PCA” value [2] read?
Answer: 3 to 7 days
